In US7262009B2, “Method of cell detection” (Matforsk; Norwegian Food Research Institute, priority 2000, dated 2007):

What was measured:
16S rDNA gene (pure DNA) = experiment: PCR inhibitory effect of photoactivated and unactivated EMA on pure DNA (16S rDNA PCR, agarose gel); assay type: biochemical
Experimental: The PCR inhibitory effects of both photoactivated, and unactivated EMA were investigated for pure DNA. PCR amplifications were carried out on dilution series of 1000, 100 and 10 μg/ml EMA. The 16S rDNA gene was amplified through the application of the forward primer 5′[…]3′ and the reverse primer 5′[…]3′. These primer sites are universally conserved for eubacterial 16S rDNA.
The PCR amplifications were done using the GeneAmp 9700 PCR amplification system (PE biosystems, Norwalk, Conn., USA). The 50 μl PCR reactions contained 10 pmol of each primer, 200 μM dNTP, 10 mM Tris-HCl (pH 8.8), 1.5 mM MgCl2, 50 mM KCl, 0.1% Triton® x-100, 1 U DynaZyme™ Thermostable DNA Polymerase (Finnzymes OY, Espoo, Finland) and 2 ng template. The cycling parameters were: 94° C. for 30 s, 55° C. for 30 s and 72° C. for 1 minute.
The cycling step was repeated 25 times. The samples were heated to 94° C. for 5 minutes prior to the amplification, and an extension step at 72° C. for 7 minutes was included after completion of the amplification reactions.
For each dilution series PCR was employed both on samples where EMA had been covalently photoactivated to DNA through illumination with a Luxor 18W type FL-185 lamp (Luxor ASA, Oslo, Norway) at 5 cm for 15 minutes, and on samples where EMA had been added to the DNA in the dark. […] For 100 and 10 μg/ml, the photoactivated EMA inhibited PCR, while PCR for the unactivated EMA was not inhibited (FIG. 1). 10 μg/ml amplification products were separated on a 1% agarose gel for 45 minutes at 100 volts. The conclusion from these experiments is that EMA covalently bound to DNA is sufficient to inhibit PCR amplification, and that EMA by itself is only inhibitory to PCR at high concentrations.

DNA = experiment: Time to light inactivation of EMA, real time quantitative PCR; assay type: biochemical; conditions: EMA exposed to light for 30 s or more prior to binding to DNA; 2, 20, 100 ng/μl
Experimental: (§1) Amplification reactions (50 μl) contained a DNA sample (1-5 μl), 1× TaqMan™ Buffer A, […], 200 μM dATP, dCTP, dGTP, and 400 μM dUTP, 0.1 μM E. coli specific probe, 0.3 μM E. coli specific primers (each), and 2.5 U AmpliTaq GoldT™ DNA polymerase. PCR samples and controls were prepared in triplicates. Reaction tubes were MicroAmp® Optical tubes and tube caps were MicroAmp® Optical caps. All consumables were supplied by PE Biosystems, Foster City, Calif., USA. Before amplification, the PCR mixture was heated to 95° C. for 10 mins to denature the template DNA. Amplification profile: 40 cycles of 95° C. for 20 seconds and 60° C. for one minute. Reactions were performed in the ABI prism® 7700 Sequence Detection System (PE Biosysrems, Foster City, Calif., USA).
(§2) The amplification was plotted as ΔRn, which was the normalized reporter signal (reporter signal minus background), against number of cycles. One then chose a threshold signal, which intersected the amplification curves in the linear region of the semi-log plot. This gave threshold cycles (CT), which is detined as the PCR cycle where an increase in fluorescence first occurred, for each amplification plot. Different amplification could then be compared by their respective threshold cycles.
The light activation was done on ice with a OSRAM SLG1000 lamp (OSRAM, Norway) with a 650 W halogen light bulb at a distance of 10 cm. […]

E. coil 0157 strain 765 = experiment: Viable/dead study with EMA, TaqMan PCR; assay type: cell-based, E. coli; conditions: for PCR cycle difference: 100 ng/μl EMA for 5 min
Experimental: as §1, §2
(§3) The light activation was done on ice with a OSRAM SLG1000 lamp (OSRAM, Norway) with a 650 W halogen light bulb at a distance of 10 cm.
The strain was killed with 70% isopropyl ethanol for. 30 min. 10 ng/μl and 100 ng/μl EMA were added both to the viable control, and to the killed bacteria. The bacteria were exposed to EMA for 30, 1 min, 5 min, 10 min and 15 min. Exposure to 100 ng/μl for 5 min give the best discrimination with approximately 1 cycle difference for the viable bacteria, and 10 cycles (½^10) for the killed bacteria. […] For treated, i.e. dead bacteria, CT was at 20 PCR cycles for bacteria not exposed to EMA but at 30 for bacteria exposed to EMA.

E. coli = experiment: EMA as living/dead stain: PCR signal from living and killed E. coli; assay type: cell-based; conditions: for difference in PCR signal intensities between the treated sample and the control: light 10 minutes
Experimental: Panel B: The signal intensities were determined as pixel values in an 8 bit grayscale by using the program Gel-Pro ANALYZER software (Medica Cybernetics, Silver Spring. Md.). The relative signal intensities for the EMA treated samples are given as a percentage of the untreated samples.
E. coli was killed by ethanol, heat, and formaldehyde to test the effect of EMA as a living/dead stain. In these experiments aliquots of approximately 10^8 cells of E. coli were pelleted in a microcentrifuge at 8000 rpm for 5 minutes, the supernant removed, and the cells resuspended in 50 μl of the respective liquids; water 96% ethanol, and 2% formaldehyde. The ethanol and formaldehyde treated samples were incubated at room temperature, while the water samples were incubated both at room temperature and at 95° C. All samples were incubated at the respective temperatures for 5 minutes.
The bacteria were subsequently pelleted by centrifugation, the supernatant removed, and the cells resuspended in 50 μl water. […]
All the samples were exposed to light for 10 minutes. Subsequently, the samples were resuspended in 500 μl […] (GTC) and 1% sarkosyl containing 1U Dynabeads DNA DIRECT beads (Dynal AS, Oslo, Norway). Incubation was continued at room temperature for an additional 5 minutes. 1 ml 96% ethanol was added, and after 5 minutes the samples were washed twice with 1 ml 70% ethanol. The bead and DNA complex was then resuspended in 50 μl water, and finally heated to 65° C. for 10 minutes to remove residual ethanol. 2% of the purified DNA was used in each amplification reaction as described above.

purified DNA = experiment: Time series for covalent binding of EMA to DNA, real time quantitative PCR; assay type: biochemical
Experimental: as §1, §2, §3
EMA in concentrations 2 ng/μl, 20 ng/μl and 100 ng/μl were added to purified DNA, and exposed to light for 5 s, 15 s, 45 s, 1 min and 3 min. The amount of DNA that could serve as a template was then tested by real time quantitative PCR.

[1] = system: Campylobacter jejuni type strain DSMZ 4688; experiment: Effect of externally added DNase on DNA in heat-treated cells, 5'-nuclease PCR; assay type: cell-based; conditions: for reduction of the signal compared to control without DNase: 10 U DNase
Experimental: The effect on the DNA stability at room temperature after heat-treatment of the cultures, and after addition of DNase was investigated. 1.7±0.8×10^7 cells (with DNase) and 5.0±0.6×10^7 cells (without DNase) of C. jejuni type strain were used in these experiments. […] One set of tubes were then incubated further at room temperature, and samples for PCR analysis removed at intervals of 5, 15, and 30 min, 1 h, 6 and 24 hrs, and 5 days. 10 U RQl DNase (Promega, Madison, Wis., USA) and 1× DNase buffer were added to another set of tubes before the incubation at room temperature. Aliquots were analyzed after 5, 15 and 30 min, and after 1 hr, 6 and 24 hours. For the PCR analysis, DNA was purified from 10 μl aliquots from the respective time-points, and the subsequent 5′-nuclease PCR assay performed as described below.
Dynabeads® DNA Direct I (Dynal AS, Oslo, Norway), 200 μl, were then added to the suspension of bacteria, and the bacteria-bead suspension was incubated at 65° C. for 20 minutes, followed by incubation at room temperature for another 2 minutes. DNA bound to magnetic beads was then drawn to the wall of the microcentrifuge tube by a magnet (MPC®-E, Dynal AS, Oslo, Norway) for 2 minutes. The supernatant containing salts, detergent and cell debris was carefully removed without disrupting the Dynabeads/DNA complex. The beads were washed twice with a washing buffer (buffer 2 from the kit). Finally, the DNA was removed from the beads by resuspending in 40 μl 10 mM Tris HCl, pH 8.0 (buffer 3 from the kit), and incubation at 65° C. for 5 minutes. The beads, now released from the DNA, were collected with the magnet, and the DNA-containing supernatant was transferred to a fresh tube and used directly in the PCR.
(§4) Amplification reactions (50 μl) contained a DNA sample (1 μl), 1× TaqMan™ Buffer A, 5 mM MgCl2, 200 μM dATP, dCTP, dGTP, and 400 μM dUTF, 0.02 μM. C. Jejuni specific probe, 0.3 μM C. jejuni specific primers—see Table 1 below (each), 1 U AmpErase™ Uracil N-glycosylase (UNG), and 2.5 U AmpliTaq Gold™ DNA polymerase.
(§5) Before amplification, the PCR mixture was heated to 50° C. in 5 min to let the UNG destroy possibly contaminating PCR products, and 95° C. for 10 min to denature the template DNA. Amplification, profile: 40 cycles of 95° C. for 20 seconds and 60° C. for one minute. Reactions were performed in the ABI Prism® 7700 Sequence Detection System (PE Biosystems, Foster City, Calif., USA). Reaction conditions were programmed and data were analyzed on a power Macintosh 4400/20 (Apple Computer, Santa Clara, Calif., USA) linked directly to the ABE prism® 7700 Sequence Detection system using the SDS 1.6.3 application software (PE Biosystems, Foster City, Calif., USA) as described by the manufacturer.
The amplification was plotted as ΔRn, which was the normalized reporter signal (reporter signal minus background), against number of cycles. […] This gave threshold cycles (CT), which is defined as the PCR cycle where an increase in fluorescence first occurred, for each amplification plot. […] The CT-values were plotted against log input DNA/cells and gave standard curves for quantification of unknown samples and possibilities to estimate the amplification efficiency in the reaction (Heid, C. A., J. Stevens, K. J. Livak and P. M. Williams, 1996, Real time quantitative PCR, Genome Research 6: 986-994; PE Biosystems, 1997, User bulletin 2; ABI PRISM 7700 Sequence Detection System). […]

[2] = system: purified DNA from C. jejuni; experiment: DNase treatment of purified DNA, 5'-nuclease PCR; assay type: biochemical; conditions: after 30 minutes of DNase treatment
Experimental: as §4, §5
The amplification was plotted as ΔRn, which was the normalized reporter signal (reporter signal minus background), against number of cycles. […] This gave threshold cycles (CT), which is defined as the PCR cycle where an increase in fluorescence first occurred, for each amplification plot. […]

## CC[n+]1c(-c2ccccc2)c2cc(N=[N+]=[N-])ccc2c2ccc(N)cc21.[Br-] [EMA, ethidium bromide monoazide]
16S rDNA gene (pure DNA); non activated EMA (added in the dark), 1000 μg/ml
  PCR inhibition: inhibited the PCR reaction
16S rDNA gene (pure DNA); photoactivated EMA, 10 μg/ml
  PCR inhibition: inhibited PCR
16S rDNA gene (pure DNA); photoactivated EMA, 100 μg/ml
  PCR inhibition: inhibited PCR
16S rDNA gene (pure DNA); photoactivated EMA, 1000 μg/ml
  PCR inhibition: inhibited the PCR reaction
16S rDNA gene (pure DNA); unactivated EMA, 10 μg/ml
  PCR inhibition: not inhibited
16S rDNA gene (pure DNA); unactivated EMA, 100 μg/ml
  PCR inhibition: not inhibited
DNA
  difference between the control and the test sample: no significant difference
E. coil 0157 strain 765; killed bacteria (70% isopropyl ethanol 30 min)
  PCR cycle difference: ~10 cycles
E. coil 0157 strain 765; treated, i.e. dead bacteria exposed to EMA
  CT: 30 PCR cycles
E. coil 0157 strain 765; untreated, i.e. viable bacteria exposed to EMA
  CT: 21 cycles
E. coil 0157 strain 765; viable bacteria
  PCR cycle difference: approximately 1 cycle
E. coli; EMA 100 μg/ml
  amplification efficiency for the living bacteria: reduced the amplification efficiency
E. coli; EMA increased to 100 μg/ml
  discrimination between the viable and dead bacteria: did not result in a better discrimination
E. coli; bacteria killed by heat (95° C.), EMA 10 μg/ml
  difference in PCR signal intensities between the treated sample and the control: about 100%
E. coli; bacteria killed with ethanol, EMA 10 μg/ml
  difference in PCR signal intensities between the treated sample and the control: about 100%
E. coli; ethanol killed bacteria (double-stranded DNA)
  PCR inhibition: 100%
E. coli; formaldehyde treated sample, EMA 10 μg/ml
  difference in PCR signal intensities between the treated sample and the control: 85%
E. coli; heat killed bacteria (single-stranded DNA)
  PCR inhibition: 100%
E. coli; living bacteria, EMA 10 μg/ml
  difference in PCR signal intensities between the controls and the EMA sample: no differences
Purified DNA; EMA 2, 20 and 100 ng/μl (all concentrations tested), after light exposure
  difference in the PCR cycles (ΔCT) until a detectable signal: approximately 12
Purified DNA; light exposure, EMA 2-100 ng/μl
  time at which the binding reaction was complete: about 30 s
Purified DNA; ½^12, from ΔCT
  fraction of DNA that could serve as a PCR template after covalent binding of EMA: 0,000244

## DNase
[1]; cells heated at 72° C. for 5 min
  reduction of the signal compared to control without DNase: 1 log
[1]; cells heated at 100° C. for 5 min
  reduction of the signal compared to control without DNase: 1 log
[1]; cells heated at 121° C. for 15 min
  reduction of the signal compared to control without DNase: 1 log
[1]; cells incubated at 20° C.
  difference between the DNase treated samples and the control: little difference
[1]; cells incubated at 55° C.
  difference between the DNase treated samples and the control: little difference
[2]
  input material (DNA) left: about 0.01%
